One molecule from patent publication US20240023806A1, “METHOD FOR SELF-DIAGNOSIS AND METHOD FOR SELF-TREATMENT OF POSTERIOR SEGMENT EYE DISEASE” (priority 2022, published 2024) can be followed below.

The structures appear in SMILES notation.

The subject of experiment [1] is inflammatory vitreous opacity due to endotoxin-induced uveitis. In words: Endotoxin-induced uveitis (EIU) rabbit model: vitreous humor protein measurement. Conditions: day 2 after intravitreal LPS 100 ng; DEX solution 100 μg/100 μL injected into the choroid through the tube; 4 eyes; p<0.05 vs control (LPS only). Format: in vivo. The source says:
(§1) In order to investigate the effectiveness of the method for self-treatment of posterior segment eye disease according to an aspect of the present invention, whether the injection of dexamethasone (DEX) into the choroid through a tube suppresses inflammatory vitreous opacity due to endotoxin-induced uveitis was examined in a rabbit model.
After the tube insertion, endotoxin-induced uveitis (HU) was induced in 8 rabbits (8 eyes) by lipopolysaccharide (LPS) derived from Escherichia coli (manufactured by Sigma-Aldrich Co. LLC). 100 ng of LPS solution was injected into the vitreous body using a 27G needle at a 12 o'clock position, 3 mm posterior to the corneal limbus. […] Since maximal inflammatory symptoms were seen 2 days after injection, inflammatory vitreous opacity was evaluated 2 days after injection by ophthalmological observation and vitreous humor protein measurement. The amount of DEX injected was entered into the application and the amount of DEX was determined on the computer. The data on the quantity of DEX was then transmitted to a wireless injector (“Tofuty”, manufactured by ICOMES LAB Co., Ltd.). […]
For protein measurements, four eyes in each group were used on day 2 after procedure. […] The protein content of vitreous humor was determined using a Bio-Rad assay kit with bovine serum albumin as a standard-dilution reference curve. […]

The test system is the same in experiment [2]. The experiment is described as follows: Endotoxin-induced uveitis (EIU) rabbit model: clinical grading of inflammatory vitreous opacity after DEX injection into the choroid through a tube. As to conditions: day 2 after intravitreal LPS 100 ng; DEX solution 100 μg/100 μL injected into the choroid through the tube; 4 eyes; p<0.05 vs control (LPS only). It is filed as in vivo. As for the experimental part: as §1
All experiments were conducted in accordance with ARVO Statement for the Use of Animals in Ophthalmic and Vision Research and the Guidelines for Experimental Animals at Iwate Medical University. Three-month-old Japanese white rabbits (purchased from KITAYAMALABES CO., LTD.) weighing 2 to 2.5 kg were used. […]
After the tube insertion, endotoxin-induced uveitis (HU) was induced in 8 rabbits (8 eyes) by lipopolysaccharide (LPS) derived from Escherichia coli (manufactured by Sigma-Aldrich Co. LLC). […] Since maximal inflammatory symptoms were seen 2 days after injection, inflammatory vitreous opacity was evaluated 2 days after injection by ophthalmological observation and vitreous humor protein measurement. The amount of DEX injected was entered into the application and the amount of DEX was determined on the computer. The data on the quantity of DEX was then transmitted to a wireless injector (“Tofuty”, manufactured by ICOMES LAB Co., Ltd.). […]

For the molecule `C[C@@H]1C[C@H]2[C@@H]3CCC4=CC(=O)C=C[C@]4(C)[C@@]3(F)[C@@H](O)C[C@]2(C)[C@@]1(O)C(=O)CO` [DEX, dexamethasone], the “Protein concentration in vitreous humor” value in experiment [1] was 20.5 ± 15.0 mg/mL. In experiment [2], the “Clinical grading of vitreous opacity (grade 0 to 4)” value amounted to 0.75±0.96.
